These molecules were tested against T1, human orexin type 2 receptor (hOX2R) (Homo sapiens, UniProt O43614) (assay: Measurement of orexin type 2 receptor agonist activity (Fluo-4 calcium fluorescence, CHO cells forcibly expressing human OX2 receptor)). Details: test compound 3 μM, DMSO = 0%, orexin A (human) 10 nM = 100%.
T1 construct: expressed in transfected cells
T1 sequence (O43614 1-444): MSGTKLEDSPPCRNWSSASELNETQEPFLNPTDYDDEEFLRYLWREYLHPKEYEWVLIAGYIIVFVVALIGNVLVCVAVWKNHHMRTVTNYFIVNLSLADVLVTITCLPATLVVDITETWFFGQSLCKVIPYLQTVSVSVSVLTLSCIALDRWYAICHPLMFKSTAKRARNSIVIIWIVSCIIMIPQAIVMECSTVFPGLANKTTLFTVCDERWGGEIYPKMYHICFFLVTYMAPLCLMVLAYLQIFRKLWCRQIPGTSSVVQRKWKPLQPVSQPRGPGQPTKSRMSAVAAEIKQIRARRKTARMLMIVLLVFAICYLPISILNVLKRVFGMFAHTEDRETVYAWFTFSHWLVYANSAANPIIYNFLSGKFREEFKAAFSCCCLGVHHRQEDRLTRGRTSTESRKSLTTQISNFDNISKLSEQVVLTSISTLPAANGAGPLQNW
Assay type: cell-based
Text: Experimental Example 1: Obtainment of Cell Stably Expressing Human Orexin Type 2 Receptor (hOX2R)
To obtain a cell clone stably expressing human orexin type 2 receptor, human orexin type 2 receptor cDNA was inserted into pcDNA3.1(+) plasmid vector (Invitrogen), and a plasmid DNA for expression of human orexin type 2 receptor (pcDNA3.1(+)/hOX2R) was cloned. The plasmid DNA was introduced into CHO-dhfr cell by an electroporation method, and human orexin type 2 receptor expressing clone cells were obtained by limiting dilution method by using G418 drug resistance as a selection marker.
Experimental Example 2: Measurement of Orexin Type 2 Receptor Agonist Activity
CHO cells forcibly expressing human OX2 receptor were seeded in each well of 384 well black transparent bottom plate (BD Falcon) at 7,500 cells/well, and cultured for one day in a 5% CO2 incubator at 37° C. After removal of the medium in the cell plate, assay buffer A containing a calcium indicator (HBSS (Life Technologies), 20 mM HEPES (Life Technologies), 0.1% BSA (Wako Pure Chemical Industries, Ltd.), 2.5 μg/mL Fluo-4 AM (DOJINDO Chemical), 0.08% Pluronic F127 (DOJINDO Chemical), 1.25 mM probenecid (DOJINDO Chemical)) was added at 30 μL/well. The plate was stood for 30 min in a 5% CO2 incubator at 37° C., and further stood at room temperature for 30 min. A test compound prepared by diluting with assay buffer B (HBSS, 20 mM HEPES, 0.1% BSA) was added at 10 μL/well, and the fluorescence value was measured by FDSSpCELL (Hamamatsu Photonics K.K.) every one sec for 1 min, and thereafter every two sec for 1 min 40 sec. The activity (%) of the test compound was calculated assuming that variation in the fluorescence value when DMSO was added instead of the test compound was 0% […], and variation in the fluorescence value when orexin A (human) (PEPTIDE INSTITUTE, INC.) was added at the final concentration of 10 nM was 100% […]. The activity of each compound at the concentration of 3 μM was shown below.

SMILES | OX2R agonist activity (3 μM, %)
CO[C@@H]1CN(C(=O)c2cc(C)ccc2C)C[C@H]1Oc1cccc(NS(=O)(=O)N2CCC(C)C2)c1 (relative stereo) [Example 68, trans-N-(3-((1-(2,5-dimethylbenzoyl)-4-methoxypyrrolidin-3-yl)oxy)phenyl)-3-methylpyrrolidine-1-sulfonamide] | 84%
CO[C@@H]1CN(C(=O)c2cc(C)ccc2C)C[C@H]1Oc1cccc(CS(=O)(=O)N2CCCC2c2ccccc2Cl)c1 (relative stereo) [Example 37, trans-(3-(3-(((2-(2-chlorophenyl)pyrrolidin-1-yl)sulfonyl)methyl)phenoxy)-4-methoxypyrrolidin-1-yl)(2,5-dimethylphenyl)methanone] | 86%
CO[C@@H]1CN(C(=O)c2cc(C)ccc2C)C[C@H]1Oc1ccc(F)c(CS(=O)(=O)N2CCCC2c2ccccn2)c1 (relative stereo) [Example 87, trans-(2,5-dimethylphenyl)(3-(4-fluoro-3-(((2-(pyridin-2-yl)pyrrolidin-1-yl)sulfonyl)methyl)phenoxy)-4-methoxypyrrolidin-1-yl)methanone] | 67%
CO[C@@H]1CN(C(=O)c2cc(C)ccc2C)C[C@H]1Oc1cccc(CS(=O)(=O)N2CCC23CCOC3)c1 (relative stereo) [Example 19, trans-(2,5-dimethylphenyl)(3-methoxy-4-(3-((6-oxa-1-azaspiro[3.4]oct-1-ylsulfonyl)methyl)phenoxy)pyrrolidin-1-yl)methanone] | 67%
CO[C@@H]1CN(C(=O)c2cc(C)ccc2C)C[C@H]1Oc1cccc(NS(=O)(=O)N2CCC23COC3)c1 (relative stereo) [Example 63, trans-N-(3-((1-(2,5-dimethylbenzoyl)-4-methoxypyrrolidin-3-yl)oxy)phenyl)-6-oxa-1-azaspiro[3.3]heptane-1-sulfonamide] | 77%
CO[C@@H]1CN(C(=O)c2cc(C)ccc2C)C[C@H]1Oc1cccc(CS(=O)(=O)N2CCCC2c2ccc(C)nc2C)c1 (relative stereo) [Example 123, trans-(2,5-dimethylphenyl)(3-(3-(((2-(2,6-dimethylpyridin-3-yl)pyrrolidin-1-yl)sulfonyl)methyl)phenoxy)-4-methoxypyrrolidin-1-yl)methanone] | 102%
COC1CN(C(=O)c2cc(C)ccc2C)CC1Oc1cccc(CS(=O)(=O)N2CCCC2c2ccccc2C)c1 (stereo not drawn) [Example 41, trans-(2,5-dimethylphenyl)(3-methoxy-4-(3-(((2-(2-methylphneyl)pyrrolidin-1-yl)sulfonyl)methyl)phenoxy)pyrrolidin-1-yl)methanone] | 75%
CO[C@@H]1CN(C(=O)c2cc(C)ccc2C)C[C@H]1Oc1cccc(NS(=O)(=O)N2CC3CC3C2)c1 (stereo partly drawn) [Example 109, N-(3-(((3R,4R)-1-(2,5-dimethylbenzoyl)-4-methoxypyrrolidin-3-yl)oxy)phenyl)-3-azabicyclo[3.1.0]hexane-3-sulfonamide] | 84%
CO[C@@H]1CN(C(=O)c2cc(C)ccc2C)C[C@H]1Oc1cccc(NS(=O)(=O)N2CCC23CCOC3)c1 (stereo partly drawn) [Example 30, N-(3-(((3R,4R)-1-(2,5-dimethylbenzoyl)-4-methoxypyrrolidin-3-yl)oxy)phenyl)-6-oxa-1-azaspiro[3.4]octane-1-sulfonamide] | 68%
CO[C@@H]1CN(C(=O)c2cc(C)ccc2C)C[C@H]1Oc1cccc(NS(=O)(=O)N(C)C2CC2)c1 (relative stereo) [Example 44, trans-N-cyclopropyl-N′-(3-((1-(2,5-dimethylbenzoyl)-4-methoxypyrrolidin-3-yl)oxy)phenyl)-N-methylsulfuric diamide] | 73%
CO[C@@H]1CN(C(=O)c2cc(C)ccc2C)C[C@H]1Oc1cccc(NS(=O)(=O)N2CCOC(C)C2)c1 (relative stereo) [Example 54, trans-N-(3-((1-(2,5-dimethylbenzoyl)-4-methoxypyrrolidin-3-yl)oxy)phenyl)-2-methylmorpholine-4-sulfonamide] | 85%
CO[C@@H]1CN(C(=O)c2cc(C)ccc2C)C[C@H]1Oc1cccc(NS(=O)(=O)N2CCC3(CC3)C2)c1 (relative stereo) [Example 69, trans-N-(3-((1-(2,5-dimethylbenzoyl)-4-methoxypyrrolidin-3-yl)oxy)phenyl)-5-azaspiro[2.4]heptane-5-sulfonamide] | 82%
COc1cccc(C)c1C(=O)N1C[C@@H](OC)[C@H](Oc2cccc(NS(=O)(=O)N3CC4CC4C3)c2)C1 (stereo partly drawn) [Example 121, N-(3-(((3R,4R)-4-methoxy-1-(2-methoxy-6-methylbenzoyl)pyrrolidin-3-yl)oxy)phenyl)-3-azabicyclo[3.1.0]hexane-3-sulfonamide] | 114%
CO[C@@H]1CN(C(=O)c2cc(C)ccc2C)C[C@H]1Oc1cccc(CS(=O)(=O)N2CCC23CN(C(C)=O)C3)c1 (relative stereo) [Example 90, trans-1-(1-((3-((1-(2,5-dimethylbenzoyl)-4-methoxypyrrolidin-3-yl)oxy)benzyl)sulfonyl)-1,6-diazaspiro[3.3]hept-6-yl)ethanone] | 96%
CO[C@@H]1CN(C(=O)c2cc(C)ccc2C)C[C@H]1Oc1cccc(NS(=O)(=O)N(C)Cc2cccnc2)c1 (relative stereo) [Example 61, trans-N′-(3-((1-(2,5-dimethylbenzoyl)-4-methoxypyrrolidin-3-yl)oxy)phenyl)-N-methyl-N-(pyridin-3-ylmethyl)sulfuric diamide] | 87%
CCc1ccccc1C(=O)N1C[C@@H](OC)[C@H](Oc2cccc(NS(=O)(=O)N3CC4CC4C3)c2)C1 (stereo partly drawn) [Example 129, N-(3-(((3R,4R)-1-(2-ethylbenzoyl)-4-methoxypyrrolidin-3-yl)oxy)phenyl)-3-azabicyclo[3.1.0]hexane-3-sulfonamide] | 96%
COC1CN(C(=O)c2cc(C)ccc2C)CC1Oc1cccc(NS(=O)(=O)N2C[C@@H]3C[C@H]3C2)c1 (relative stereo) [Example 73, trans-N-(3-((1-(2,5-dimethylbenzoyl)-4-methoxypyrrolidin-3-yl)oxy)phenyl)-3-azabicyclo[3.1.0]hexane-3-sulfonamide] | 91%
CO[C@@H]1CN(C(=O)c2cc(C)ccc2C)C[C@H]1Oc1cccc(NS(=O)(=O)N2CCCC2c2ccncc2)c1 (relative stereo) [Example 52, trans-N-(3-((1-(2,5-dimethylbenzoyl)-4-methoxypyrrolidin-3-yl)oxy)phenyl)-2-(pyridin-4-yl)pyrrolidine-1-sulfonamide] | 83%
COC1CN(C(=O)c2cc(C)ccc2C)CC1Oc1cc(NS(=O)(=O)N2C[C@@H]3C[C@H]3C2)cc(F)n1 (relative stereo) [Example 116, trans-N-(2-((1-(2,5-dimethylbenzoyl)-4-methoxypyrrolidin-3-yl)oxy)-6-fluoropyridin-4-yl)-3-azabicyclo[3.1.0]hexane-3-sulfonamide] | 68%
CO[C@@H]1CN(C(=O)c2cc(C)ccc2C)C[C@H]1Oc1cccc(CS(=O)(=O)N2CCC23CCN(C(=O)OC(C)(C)C)C3)c1 (relative stereo) [Example 33, tert-butyl trans-1-((3-((1-(2,5-dimethylbenzoyl)-4-methoxypyrrolidin-3-yl)oxy)benzyl)sulfonyl)-1,6-diazaspiro[3.4]octane-6-carboxylate] | 105%

Source: patent US11059780B2, “Substituted pyrrolidine compound and use thereof” (Takeda Pharmaceutical Company Limited, priority 2017, dated 2021)
